Test results as given in publication PMC10418939, “Synthesis, ^123I-Radiolabeling Optimization, and Initial Preclinical Evaluation of Novel Urea-Based PSMA Inhibitors with a Tributylstannyl Prosthetic Group in Their Structures” (International Journal of Molecular Sciences, 2023).
Read-outs that look alike come from different tables or passages of the source.

Key:
[1] = NCr nude mice bearing LNCaP xenografts, cited from earlier work; for accumulation in the liver: 4 h after injection; for accumulation in the kidney: after 4 h
From the text: The uptake of [^123I]PSMA-p-IB in normal organs, except in the salivary gland, gastrointestinal tract, and body, were low. […] This value was correlated with PSMA-p-IB that had been ^123I-labeled, which is non-residualizi ...

[2] = In vivo biodistribution in normal mice; design: activity in the whole gastrointestinal tract (with contents): unit not given here; conditions: female CD1 mice, i.v. tail vein, 80 pmol, 4 h p.i.
Description: The mice were sacrificed at 4 h post-injection (p.i.) by cervical dislocation. A side-by-side comparison of the biodistribution of [^123I]PSMA-p-IB and [^177Lu]Lu-PSMA-617 in normal mice is shown in Figure 11. Biodistribution of [^123I]PSMA-p-IB at 4 h p.i. in CD1 mice reflects a low level of accumulation in almost all normal organs, except in the salivary gland, gastrointestinal tract, and the rest of the body. There were significant differences between the uptake of [^123I]PSMA-p-IB and [^177Lu]Lu-PSMA-617 in several normal organs. Low accumulation of both ligands was detected in muscle and bone. However, it was determined that the uptake of [^177Lu]Lu-PSMA-617 in muscle (0.1 ± 0.1 %ID/g) was noticeably lower than that of [^123I]PSMA-p-IB (0.2 ± 0.0 %ID/g). […] The activity of [^123I]PSMA-p-IB in blood was 1.3 ± 0.5 %ID/g. […] The activity in the blood for [^123I]PSMA-p-IB experiment was associated with […] labeled with ^123I, which is non-residualizing and is thought to result in the rapid excretion of radiometabolites. Additionally, this ligand lipophilicity might lead it to bind to proteins in the blood. […] This value was clearly higher than the [^177Lu]Lu-PSMA-617 accumulation in the same organ of 0.1 ± 0.0 %ID/g. This [^123I]PSMA-p-IB accumulation could be due to radioiodine catabolites. The activity in the whole gastrointestinal tract (with contents) and small intestine for [^123I]PSMA-p-IB was 12.4 ± 0.8 and 1.1 ± 0.2 %ID/g, respectively. Meanwhile, the activity of [^177Lu]Lu-PSMA-617 in the whole gastrointestinal tract (with contents) and small intestine was 1.2 ± 0.8 and 0.2 ± 0.1 %ID/g, respectively.
Remarkable results were observed whereby the accumulation of [^123I]PSMA-p-IB (0.9 ± 0.1 %ID/g) in the liver was substantially lower than that of [^177Lu]Lu-PSMA-617 (2.3 ± 0.2 %ID/g).
The biodistribution of [^123I]PSMA-p-IB and [^177Lu]Lu-PSMA-617 in normal mice was evaluated in 8 female CD1 mice (2 groups) of 6 weeks of age with an average weight of 31.8 ± 3.6 g. The mice were housed and cared for under standard conditions prior to use. Four mice were each injected intravenously through the tail vein with 40 kBq (80 pmol) of [^123I]PSMA-p-IB in 100 μL PBS with 10% ethanol. The remaining 4 mice were intravenously (i.v.) injected with 130 kBq (80 pmol) of [^177Lu]Lu-PSMA-617 in 100 μL PBS with 1% BSA per mouse. The mice were sacrificed 4 h after injection. Cervical dislocation was employed to sacrifice the anesthetized mice. The blood, tissues, and organs (salivary gland, lung, liver, spleen, small intestine, kidney, muscle, and bone) were excised, collected, and weighed. The ^123I and ^177Lu activities were simultaneously measured using a gamma-counter. The activity uptake was expressed as the percentage of injected activity per gram of organ (%ID/g).
Figure 11 Biodistribution of [^123I]PSMA-p-IB and […] in CD1 mice 4 h post-injection (p.i.). Data for the gastrointestinal tract (including the contents) and the body are presented as the %ID per whole sample. ns indicates p > 0.05, * indicates p ≤ 0.05, ** indicates p ≤ 0.01, *** indicates p ≤ 0.001 and **** indicates p ≤ 0.0001. The comparison study was performed by unpaired 2-tailed t-tests (95% confidence interval).

| Compound | accumulation in the liver [1] [%ID/g] | accumulation in the kidney [1] [%ID/g] | accumulation in bone ([2]; n = 4, gamma counter) [%ID/g] | accumulation in salivary glands ([2]; n = 4, gamma counter) [%ID/g] | accumulation in the liver ([2]; n = 4, gamma counter) [%ID/g] | activity in blood ([2]; n = 4, gamma counter) [%ID/g] | activity in small intestine ([2]; n = 4, gamma counter) [%ID/g] | uptake in muscle ([2]; n = 4, gamma counter) [%ID/g] | uptake in the kidney ([2]; n = 4, gamma counter) [%ID/g] | activity in the whole gastrointestinal tract (with contents) ([2]; n = 4, Figure 11 legend: %ID per whole sample) |
| --- | --- | --- | --- | --- | --- | --- | --- | --- | --- | --- |
| O=C(O)CC[C@H](NC(=O)N[C@@H](CCCCNCc1ccc([123I])cc1)C(=O)O)C(=O)O [[^123I]MIP-1072] | 2.17 ± 0.67 | 35.7 ± 18.7 |  |  |  |  |  |  |  |  |
| O=C(O)CC[C@H](NC(=O)N[C@@H](CCCCNC(=O)Nc1ccc([123I])cc1)C(=O)O)C(=O)O [[^123I]MIP-1095] | 7.82 ± 1.01 | 77.5 ± 16.5 |  |  |  |  |  |  |  |  |
| [^177Lu]Lu-PSMA-617 |  |  | 0.6 ± 0.1 | 0.1 ± 0.0 | 2.3 ± 0.2 | 0.1 ± 0.0 | 0.2 ± 0.1 | 0.1 ± 0.1 | 6.1 ± 3.7 | 1.2 ± 0.8 |
